Test systems include RXF 393; RPMI-8226; CCRF-CEM; MDA-MB-231; OVCAR-3; T47D; A549; MDA-MB-435; HOP-92; OVCAR-8; COLO 205; UO-31; Hs-578T; BT-549; HL-60; SF-268; SK-OV-3; SW-620; UACC-257; NCI/ADR-RES.
Common to all, as to test: NCI anticancer screen, dose series, 48 h

Each structure is given as a SMILES string.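 Cells were grown in 96-well plates and exposed to each compound for 48 hours at five concentrations; endpoints were interpolated linearly between bracketing concentrations, or set to the highest concentration if not reached. Abbreviation: GI50, concentration required for 50% inhibition of growth.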 Calls of active or inactive are those of the source. Cut-off read from the data, not from the text of the source: active = GI50 up to about 1.1 µM and inactive = higher. Peptide text beside a SMILES is read from it. * marks the point of attachment. Cbz = O=C(OCc1ccccc1)*; CH2Cl = ClC*

In the case of `Fc1cc(-c2cc(-c3ccccc3)n[nH]2)c(Cl)cc1Cl`, the GI50 was > 100 µM (inactive) in the experiment on RXF 393; 30.9 µM (inactive) in the experiment on RPMI-8226; 82.2 µM (inactive) in the experiment with CCRF-CEM; 55.5 µM (inactive) with MDA-MB-231; > 100 µM (inactive) with OVCAR-3; > 100 µM (inactive) with T47D. Moreover, the GI50 in the experiment on A549, in the experiment with MDA-MB-435, in the experiment on HOP-92, in the experiment with OVCAR-8, with COLO 205 and in the experiment with UO-31 was > 100 µM (inactive) throughout. For the same compound, the GI50 was > 100 µM (inactive) in the experiment on Hs-578T; > 100 µM (inactive) in the experiment with BT-549; 28.9 µM (inactive) in the experiment on HL-60; > 100 µM (inactive) in the experiment with SF-268; > 100 µM (inactive) in the experiment with SK-OV-3; > 100 µM (inactive) in the experiment with SW-620. Moreover, the GI50 in the experiment with UACC-257 and in the experiment on NCI/ADR-RES was > 100 µM (inactive) in each case.

As for `Nc1nc2ccc(Sc3ccc4nc(N)[nH]c(=O)c4c3)cc2c(=O)[nH]1`, the GI50 in the experiment on RXF 393 is > 100 µM (inactive); in the experiment with RPMI-8226, > 100 µM (inactive); with CCRF-CEM, > 100 µM (inactive); in the experiment on MDA-MB-231, 67.3 µM (inactive); in the experiment with OVCAR-3, > 100 µM (inactive); in the experiment on T47D it was > 100 µM (inactive). Further, the GI50 in the experiment with A549, in the experiment with MDA-MB-435, in the experiment with HOP-92, in the experiment with OVCAR-8, in the experiment with COLO 205 and in the experiment with UO-31 was > 100 µM (inactive) each time. Besides, the GI50 in the experiment on Hs-578T, in the experiment on BT-549, with HL-60, in the experiment on SF-268, in the experiment on SK-OV-3 and in the experiment with SW-620 was > 100 µM (inactive) each time. Moreover, the GI50 in the experiment with UACC-257 and in the experiment with NCI/ADR-RES was > 100 µM (inactive) each time.

Consider `O=C1OC(C2Cc3ccccc3C2=O)c2ccccc21` (stereo not given), for which the GI50 with RXF 393, in the experiment on RPMI-8226, in the experiment with CCRF-CEM, in the experiment with MDA-MB-231, with OVCAR-3 and with T47D was > 100 µM (inactive) each time. Further, the GI50 with A549, in the experiment with MDA-MB-435, in the experiment on HOP-92, in the experiment with OVCAR-8, in the experiment with COLO 205 and in the experiment with UO-31 was > 100 µM (inactive) each time. Moreover, the GI50 in the experiment on Hs-578T, in the experiment on BT-549, in the experiment on HL-60, in the experiment with SF-268, in the experiment on SK-OV-3 and with SW-620 was > 100 µM (inactive) in each case. Besides, the GI50 in the experiment with UACC-257 and with NCI/ADR-RES was > 100 µM (inactive) each time.

On to `O=C(N/N=C\c1ccc([N+](=O)[O-])cc1)Nc1cccc2ccccc12`, for which the GI50 in the experiment with RXF 393 is 11 µM (inactive); in the experiment on RPMI-8226, > 100 µM (inactive); in the experiment on CCRF-CEM, > 100 µM (inactive); in the experiment on MDA-MB-231 it was 14.1 µM (inactive); in the experiment with OVCAR-3, > 37.8 µM (inactive); with T47D, > 23.1 µM (inactive). Further, the GI50 in the experiment on A549 is > 49.9 µM (inactive); with MDA-MB-435, > 100 µM (inactive); with HOP-92, 6.15 µM (inactive); with OVCAR-8, 6.03 µM (inactive); with COLO 205 it was > 100 µM (inactive); in the experiment with UO-31, 24.5 µM (inactive). In addition, the GI50 in the experiment with Hs-578T was 3.99 µM (inactive); in the experiment on BT-549, 4.25 µM (inactive); in the experiment with HL-60, > 31.6 µM (inactive); in the experiment on SF-268, 4.88 µM (inactive); in the experiment with SK-OV-3, 4.5 µM (inactive); in the experiment with SW-620, > 100 µM (inactive). The figures for the GI50 in the experiment with UACC-257 and with NCI/ADR-RES were > 79.3 µM (inactive) and 19.1 µM (inactive), respectively.

Take `O=C1C(Br)=CC2(C=C1Br)CCNC1=C2C(=O)c2[nH]cnc2C1=O`: the GI50 is 16.3 µM (inactive) in the experiment with RXF 393; 14.5 µM (inactive) in the experiment with RPMI-8226; 15 µM (inactive) in the experiment on CCRF-CEM; 15.8 µM (inactive) in the experiment with MDA-MB-231; 15.7 µM (inactive) with OVCAR-3; 15.6 µM (inactive) with T47D. The GI50 with A549 was 18.3 µM (inactive); in the experiment with MDA-MB-435, 11 µM (inactive); in the experiment with HOP-92, 12.3 µM (inactive); in the experiment on OVCAR-8 it was 16.8 µM (inactive); in the experiment on COLO 205, 21.3 µM (inactive); in the experiment on UO-31, 15.9 µM (inactive). Moreover, the GI50 in the experiment on Hs-578T is 26.3 µM (inactive); with BT-549, 19.2 µM (inactive); in the experiment with HL-60 it was 4.79 µM (inactive); in the experiment on SF-268, 14.8 µM (inactive); in the experiment with SK-OV-3, 21.5 µM (inactive); in the experiment with SW-620 it was 17.7 µM (inactive). The GI50 in the experiment with UACC-257 is 14.6 µM (inactive); in the experiment on NCI/ADR-RES, 21.1 µM (inactive).

For `C=CCN1C(=O)/C(=C/c2ccco2)N=C1SC/C=C/C`, the GI50 with RXF 393 is 29.2 µM (inactive); with RPMI-8226 it was 28 µM (inactive); in the experiment on CCRF-CEM, 45.9 µM (inactive); with MDA-MB-231, 67.9 µM (inactive); in the experiment on OVCAR-3, 35.6 µM (inactive); with T47D it was 43.6 µM (inactive). The GI50 in the experiment with A549 was 49.3 µM (inactive); in the experiment with MDA-MB-435, 31.8 µM (inactive); in the experiment with HOP-92, 21.6 µM (inactive); in the experiment on OVCAR-8 it was 24.1 µM (inactive); in the experiment on COLO 205, 36 µM (inactive); with UO-31, 73.5 µM (inactive). The GI50 was 53.8 µM (inactive) with Hs-578T; 40.2 µM (inactive) in the experiment with BT-549; 28.2 µM (inactive) in the experiment on HL-60; 49.2 µM (inactive) in the experiment with SF-268; > 100 µM (inactive) in the experiment with SK-OV-3; 43.9 µM (inactive) with SW-620. Besides, the results for the GI50 in the experiment on UACC-257 and with NCI/ADR-RES were 48.5 µM (inactive) and 37.1 µM (inactive), respectively.

`COC(=O)CNC(=O)CCC(C)[C@H]1CCC2C3C(C[C@H](OC(C)=O)[C@@]21C)[C@@]1(C)CCC2(C[C@H]1C[C@H]3OC(C)=O)OOC1(CC[C@]3(C)C4C[C@H](OC(C)=O)[C@@]5(C)C(CC[C@@H]5C(C)CCC(=O)NCC(=O)OC)C4[C@H](OC(C)=O)C[C@@H]3C1)OO2` (stereo not given in full): the GI50 was 0.931 µM (active) with RXF 393; 0.309 µM (active) in the experiment on RPMI-8226; 0.244 µM (active) with CCRF-CEM; 1.31 µM (inactive) in the experiment with MDA-MB-231; 3.03 µM (inactive) in the experiment on OVCAR-3; 2.6 µM (inactive) in the experiment with T47D. Moreover, the GI50 with A549 was 0.914 µM (active); in the experiment with MDA-MB-435, 2.3 µM (inactive); with HOP-92, 0.942 µM (active); in the experiment on OVCAR-8 it was 0.746 µM (active); in the experiment with COLO 205, 0.875 µM (active); with UO-31, 0.828 µM (active). The GI50 is 0.938 µM (active) in the experiment with Hs-578T; > 50 µM (inactive) in the experiment on BT-549; 1.11 µM (active) in the experiment on HL-60; 2.19 µM (inactive) with SF-268; 5.37 µM (inactive) in the experiment with SK-OV-3; 1.71 µM (inactive) in the experiment with SW-620. Moreover, the GI50 with UACC-257 is 1.14 µM (inactive); with NCI/ADR-RES it was 8.75 µM (inactive).

Consider `CC(C)CC(NC(=O)OCc1ccccc1)C(=O)NC(Cc1ccccc1)C(=O)CCl` (stereo not drawn) (Cbz-Leu-Phe-CH2Cl; configuration not given here), for which the GI50 was 1.7 µM (inactive) with RXF 393; 1.61 µM (inactive) in the experiment with RPMI-8226; 0.204 µM (active) in the experiment on CCRF-CEM; 1.69 µM (inactive) in the experiment with MDA-MB-231; 3.72 µM (inactive) in the experiment with OVCAR-3; 2.21 µM (inactive) in the experiment with T47D. For the same compound, the GI50 was 15.9 µM (inactive) in the experiment with A549; 2.34 µM (inactive) in the experiment on MDA-MB-435; 1.89 µM (inactive) in the experiment on HOP-92; 2.08 µM (inactive) with OVCAR-8; 2.93 µM (inactive) with COLO 205; 6.46 µM (inactive) in the experiment with UO-31. Also, the GI50 is 4.62 µM (inactive) in the experiment on Hs-578T; 2.47 µM (inactive) in the experiment with BT-549; 1.33 µM (inactive) in the experiment on HL-60; 4.86 µM (inactive) in the experiment with SF-268; 11.4 µM (inactive) in the experiment on SK-OV-3; 1.57 µM (inactive) with SW-620. Also, the results for the GI50 in the experiment with UACC-257 and with NCI/ADR-RES were 4 µM (inactive) and 2.44 µM (inactive), respectively.

The record behind these values is ChEMBL document CHEMBL1201862, “PubChem BioAssay data set” (2004).
